In patent US4454122A, “Adenosine derivatives of anti-inflammatory and analgesic activity, and therapeutic compositions which contain them as their active principle” (Bioresearch S.r.l., priority 1982, dated 1984):

Key:
[1] = test system: experimental edema in the rat by carragen; assay: experimental edema in the rat by carragen (Winter method), percentage protection; format: in vivo; settings: for inhibition in vivo at 80 mg/kg: 80 mg/kg orally; for inhibition in vivo at 85 mg/kg: 85 mg/kg orally
[2] = test system: pleuritis induced in the rat by carragen; assay: pleuritis induced in the rat by carragen (Velo method); format: in vivo
[3] = test system: stretching by phenylquinone; assay: stretching test by phenylquinone (analgesic activity); format: in vivo; settings: im; intramuscularly
[4] = test system: experimental edema in the rat by carragen; assay: experimental edema in the rat by carragen (Winter method), percentage protection; format: in vivo
Experimental: ^ (a) signifies that the product was administered intramuscularly.

[5] = acute toxicity, DL50 in the mouse; settings: in vivo
Description: The compounds of the present invention are practically free from acute toxicity when administered orally. They are practically free from toxicity at therapeutic doses for any method of administration. The following values are obtained for MTA and MTA sulphoxide: […]

[6] = test system: mouse; assay: hot plate test on the mouse according to Roberts (analgesic activity); format: in vivo
Experimental: C--The analgesic activity of the products was tested by two tests considered very significant.
In the hot plate test on the mouse according to Roberts (Roberts E. Simonsen D.G. (1966) Biochem. Pharmac. 15, 1875-) the MTA gives a protection of 50% with an oral dose of 37 mg/kg. An approximately equivalent protection of 58% is obtained with 100 mg/kg of amidopyrine administered orally.

[7] = test system: fever induced in the rat by beer yeast; assay: fever induced in the rat by beer yeast (antipyretic activity); format: in vivo; settings: 200 mg/kg, orally
Experimental: This was measured for the new products by means of fever induced in the rat by beer yeast (Winder C. V. et al (1961) J. Pharmacol. Exp. Ther. 133, 117).

[8] = test system: gastro-intestinal system; assay: secondary effects on the gastro-intestinal system at ED50 doses (gastric lesions); format: in vivo, rat; settings: at ED50 doses
Experimental: In the same test, the ED50 of indomethacine is 9 mg/kg.

[9] = lethal dose in the rat and therapeutical index; settings: in vivo; edema test in the rat; read-out: therapeutical index (TI)
[10] = test system: rat; settings: Martelli A., 1973; cited from earlier work
[11] = test system: platelet aggregation induced by arachidonic acid; assay: in vitro platelet aggregation induced by arachidonic acid (AA); format: cell-based; settings: MTA 5×10^-4 M or PGI2 5×10^-9 M, each alone; FIG. 3
Experimental: (2) "in vitro" tests on platelet aggregation induced by arachidonic acid (AA);
Blood was withdrawn without stasis, and an anticoagulant (3.8% sodium citrate) was added to give a blood:citrate ratio of 9:1. Plasma rich in platelets and plasma poor in platelets were obtained by centrifuging at ambient temperature.
The platelet aggregation was estimated using the Born & Cross method (G. V. R. Born and M. J. Cross, J. Physiol., Lond. 168, 178, 1963) on the plasma fraction rich in platelets.
The aggregating agents were used in the following concentrations:
ADP (Sigma) 1 μM; collagen (Horn) 5 μml; arachidonic acid 4×10^-4 M.
The capacity of MTA to increase the inhibiting effect of prostacyclin (PGI2) in aggregation induced by AA was also investigated. In FIG. 3, curve 1 relates to the controls, curve 2 to MTA at a concentration of 5×10^-4 M, curve 3 to PGI2 at a concentration of 5×10^-9 M, and curve 4 to a mixture consisting of 5×10^-4 M MTA and 5×10^-9 M PGI2.

[12] = po, rat, read-out: Percent protection calculated on edema development
[13] = intramuscular, table 1 and all the tests carried out

CCSC[C@H]1O[C@@H](n2cnc3c(N)ncnc32)[C@H](O)[C@@H]1O [n = 0 R = CH2CH3, R1 = R2 = H, 5'-deoxy-5'-ethylthioadenosine] gave an inhibition in vivo at 80 mg/kg [1, 12] of 44%.
Nc1ncnc2c1ncn2[C@@H]1O[C@H](CSCc2ccccc2)[C@@H](O)[C@H]1O [n = 0 R = CH2C6 H5, R1 = R2 = H] showed an inhibition in vivo at 47 mg/kg ([1]; po, 47 mg/kg orally, rat, read-out: Percent protection calculated on edema development) of 10%.
With CSC[C@H]1O[C@@H](n2cnc3c(NC(C)=O)ncnc32)[C@H](OC(C)=O)[C@@H]1OC(C)=O [n = 0 R = CH3, R1 = R2 = COCH3, N^6,2',3'-triacetyl-5'-deoxy-5'-thioadenosine] the inhibition in vivo at 114 mg/kg ([1]; po, 114 mg/kg orally, rat, read-out: Percent protection calculated on edema development) was 47%.
CCCCCCCCCCCCSC[C@H]1O[C@@H](n2cnc3c(N)ncnc32)[C@H](O)[C@@H]1O [n = 0 R = (CH2)11CH3, R1 = R2 =] showed an inhibition in vivo at 112 mg/kg ([1]; po, 112 mg/kg orally, rat, read-out: Percent protection calculated on edema development) of 10%.
For C[S+]([O-])C[C@H]1O[C@@H](n2cnc3c(N)ncnc32)[C@H](O)[C@@H]1O (stereo partly drawn) [MTA sulphoxide, methylthioadenosine sulphoxide], the “protection calculated on the total number of cells present in the exudate” value ([2]; 80 mg/kg, intramuscularly, rat) was 76.4%, the “protection calculated on the volume of the exudate” value ([2]; 80 mg/kg, intramuscularly, rat) was 75.8% and the ED50 [3] was 10 mg/kg. The inhibition in vivo at 8.6 mg/kg ([4]; im, 8.6 mg/kg intramuscularly, rat, read-out: Percent protection calculated on edema development) was 50%, the “activity by intramuscular administration (in words)” value [4, 13] was “greater activity” and the LD50 ([5]; iv, intravenously) was 400 mg/kg. The LD50 ([5]; po, orally) was greater than 2000 mg/kg, the “activity by intramuscular administration (in words)” value [1, 13] was “particularly active” and the inhibition in vivo at 156 mg/kg ([1]; po, 156 mg/kg orally, rat, read-out: Percent protection calculated on edema development) was 50%. The “protection in the hot plate test” value ([6]; 20 mg/kg, intramuscularly) was 50% and the “protection in the hot plate test” value ([6]; 100 mg/kg, oral) was 50%.
With CCCSC[C@H]1O[C@@H](n2cnc3c(N)ncnc32)[C@H](O)[C@@H]1O [n = 0 R = (CH2)2CH3, R1 = R2 = H] the inhibition in vivo at 80 mg/kg [1, 12] was 53%.
For CSC[C@H]1O[C@@H](n2cnc3c(NS(=O)(=O)c4ccc(C)cc4)ncnc32)[C@H](OS(=O)(=O)c2ccc(C)cc2)[C@@H]1OS(=O)(=O)c1ccc(C)cc1 [n = 0 R = CH3, R1 = R2 = tosyl], the inhibition in vivo at 204 mg/kg ([1]; po, 204 mg/kg orally, rat, read-out: Percent protection calculated on edema development) was 15%.
Work on CSC[C@H]1O[C@@H](n2cnc3c(N)ncnc32)[C@@H]2OC(C)(C)O[C@@H]21 [n = 0 R = CH3, R1 = H, R2R1 = isopropyl, 5'-deoxy-2',3'-isopropylidene-5'-methylthioadenosine] yielded an inhibition in vivo at 91 mg/kg ([1]; po, 91 mg/kg orally, rat, read-out: Percent protection calculated on edema development) of 20%.
CCCCCCCCSC[C@H]1O[C@@H](n2cnc3c(N)ncnc32)[C@H](O)[C@@H]1O [n = 0 R = (CH2)7CH3, R1 = R2 = H] showed an inhibition in vivo at 100 mg/kg ([1]; po, 100 mg/kg orally, rat, read-out: Percent protection calculated on edema development) of 47%.
CCCCCCCCCCSC[C@H]1O[C@@H](n2cnc3c(N)ncnc32)[C@H](O)[C@@H]1O [n = 0 R = (CH2)9CH3, R1 = R2 = H] gave an inhibition in vivo at 106 mg/kg ([1]; po, 106 mg/kg orally, rat, read-out: Percent protection calculated on edema development) of 33%.
CSC[C@H]1O[C@@H](n2cnc3c(NC(=O)c4ccccc4)ncnc32)[C@H](OC(=O)c2ccccc2)[C@@H]1OC(=O)c1ccccc1 [n = 0 R = CH3, R1 = R2 = COC6 H5] gave an inhibition in vivo at 164 mg/kg ([1]; po, 164 mg/kg orally, rat, read-out: Percent protection calculated on edema development) of 10%.
Compound CCCCCCCSC[C@H]1O[C@@H](n2cnc3c(N)ncnc32)[C@H](O)[C@@H]1O [n = 0 R = (CH2)6CH3, R1 = R2 = H] has an inhibition in vivo at 95 mg/kg ([1]; po, 95 mg/kg orally, rat, read-out: Percent protection calculated on edema development) of 20%.
CCCCCSC[C@H]1O[C@@H](n2cnc3c(N)ncnc32)[C@H](O)[C@@H]1O [n = 0 R = (CH2)4CH3, R1 = R2 = H] showed an inhibition in vivo at 90 mg/kg ([1]; po, 90 mg/kg orally, rat, read-out: Percent protection calculated on edema development) of 25%.
With Cc1c(N(C)C)c(=O)n(-c2ccccc2)n1C [amidopyrine, reference compound] the “protection in the hot plate test” value ([6]; 100 mg/kg, oral) was 58% and the temperature reduction [7] was 4.69%.
Compound CCCCSC[C@H]1O[C@@H](n2cnc3c(N)ncnc32)[C@H](O)[C@@H]1O [n = 0 R = (CH2)3CH3, R1 = R2 = H] has an inhibition in vivo at 85 mg/kg [1, 12] of 39%.
CC(C)SC[C@H]1O[C@@H](n2cnc3c(N)ncnc32)[C@H](O)[C@@H]1O gave an inhibition in vivo at 80 mg/kg [1, 12] of 45%.
For COc1ccc2c(c1)c(CC(=O)O)c(C)n2C(=O)c1ccc(Cl)cc1 [Indomethacine, reference compound], the “protection, compared with that of MTA (in words)” value ([2]; 10 mg/kg, compared with MTA 75 mg/kg oral) was “comparable protection”, the “secondary effect on the gastro-intestinal system / gastric lesions” value [8] was “serious gastric lesions” and the selectivity ratio [9] was 1.3. For the same compound, the inhibition in vivo at 9 mg/kg ([4]; Rattus norvegicus, po, read-out: Percent protection calculated on edema development) was 50%, the ED50 ([1]; Rattus norvegicus, po, read-out: ED50 (edema test)) was 9 mg/kg and the “LD in the rat” value [10] was 12 mg/kg.
For CCC(C)SC[C@H]1O[C@@H](n2cnc3c(N)ncnc32)[C@H](O)[C@@H]1O (stereo partly drawn), the inhibition in vivo at 85 mg/kg [1, 12] was 35%.
In the case of CCCCC[C@H](O)/C=C/[C@@H]1[C@H]2C/C(=C/CCCC(=O)O)O[C@H]2C[C@H]1O [PGI2, reference compound], the “antiaggregation action alone, AA induced (in words)” value [11] was “ineffective”.
CC(C)CSC[C@H]1O[C@@H](n2cnc3c(N)ncnc32)[C@H](O)[C@@H]1O gave an inhibition in vivo at 85 mg/kg [1, 12] of 62%.
